Reference: PubChem BioAssay AID1963854 (Molecular Pharmacology Branch, DTP, NCI, 2024)

Tested on: 186277-243-T-J2-PDC complex spheroid viability
Assay: Anticancer human tumor 186277-243-T-J2-PDC patient-derived colon adenocarcinoma cell line growth inhibition [POLQ]
Settings: for IC50: curve of first compound; for viability, T/C: stronger effect = lower value
Method in brief: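 Three-cell-type spheroids modelling solid tumor plus stroma served as the readout system; POL inhibitors were tested individually and in combination, concentration ranges set by clinical Cmax where known.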

[1] = second compound 0.0316 µM, first compound 0.0316 µM
[2] = second compound 0.0316 µM, first compound 0.1 µM
[3] = second compound 0.0316 µM, first compound 0.316 µM
[4] = second compound 0.0316 µM, first compound 1 µM
[5] = second compound 0.0316 µM, first compound 3.16 µM
[6] = second compound 0.0316 µM, first compound 10 µM
[7] = second compound 0.1 µM, first compound 0.0316 µM
[8] = second compound 0.1 µM, first compound 0.1 µM
[9] = second compound 0.1 µM, first compound 0.316 µM
[10] = second compound 0.1 µM, first compound 1 µM
[11] = second compound 0.1 µM, first compound 3.16 µM
[12] = second compound 0.1 µM, first compound 10 µM
[13] = second compound 0.316 µM, first compound 0.0316 µM
[14] = second compound 0.316 µM, first compound 0.1 µM
[15] = second compound 0.316 µM, first compound 0.316 µM
[16] = second compound 0.316 µM, first compound 1 µM
[17] = second compound 0.316 µM, first compound 3.16 µM
[18] = second compound 0.316 µM, first compound 10 µM
[19] = second compound 1 µM, first compound 0.0316 µM
[20] = second compound 1 µM, first compound 0.1 µM
[21] = second compound 1 µM, first compound 0.316 µM
[22] = second compound 1 µM, first compound 1 µM
[23] = second compound 1 µM, first compound 3.16 µM
[24] = second compound 1 µM, first compound 10 µM
[25] = second compound 3.16 µM, first compound 0.0316 µM
[26] = second compound 3.16 µM, first compound 0.1 µM
[27] = second compound 3.16 µM, first compound 0.316 µM
[28] = second compound 3.16 µM, first compound 1 µM
[29] = second compound 3.16 µM, first compound 3.16 µM
[30] = second compound 3.16 µM, first compound 10 µM
[31] = second compound 10 µM, first compound 0.0316 µM
[32] = second compound 10 µM, first compound 0.1 µM
[33] = second compound 10 µM, first compound 0.316 µM
[34] = second compound 10 µM, first compound 1 µM
[35] = second compound 10 µM, first compound 3.16 µM
[36] = second compound 10 µM, first compound 10 µM
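Note: spheroids exposed to compounds for seven days.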
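Throughout, for viability, T/C: 100% = DMSO vehicle control viability.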

SMILES: O=C(c1cc(Cc2n[nH]c(=O)c3ccccc23)ccc1F)N1CCN(C(=O)C2CC2)CC1 + Cc1cccc(N(C)C(=O)C2C(O)CCN2c2nc(C)cc(C(F)(F)F)c2C#N)c1
- IC50 (second compound 0.0316 µM): > 10 µM
- IC50 (second compound 0.1 µM): > 10 µM
- IC50 (second compound 0.316 µM): > 10 µM
- IC50 (second compound 1 µM): > 10 µM
- IC50 (second compound 3.16 µM): > 10 µM
- IC50 (second compound 10 µM): > 10 µM
- viability, T/C [1]: 89.3%
- viability, T/C [2]: 99.9%
- viability, T/C [3]: 99.9%
- viability, T/C [4]: 100%
- viability, T/C [5]: 118%
- viability, T/C [6]: 75.5%
- viability, T/C [7]: 94%
- viability, T/C [8]: 92.4%
- viability, T/C [9]: 96.3%
- viability, T/C [10]: 92.7%
- viability, T/C [11]: 114%
- viability, T/C [12]: 81.8%
- viability, T/C [13]: 94.8%
- viability, T/C [14]: 116%
- viability, T/C [15]: 99.7%
- viability, T/C [16]: 97%
- viability, T/C [17]: 112%
- viability, T/C [18]: 78.1%
- viability, T/C [19]: 101%
- viability, T/C [20]: 96.8%
- viability, T/C [21]: 113%
- viability, T/C [22]: 90.7%
- viability, T/C [23]: 99.5%
- viability, T/C [24]: 76.1%
- viability, T/C [25]: 96.3%
- viability, T/C [26]: 99%
- viability, T/C [27]: 97.6%
- viability, T/C [28]: 106%
- viability, T/C [29]: 113%
- viability, T/C [30]: 58.7%
- viability, T/C [31]: 115%
- viability, T/C [32]: 103%
- viability, T/C [33]: 100%
- viability, T/C [34]: 108%
- viability, T/C [35]: 113%
- viability, T/C [36]: 65.2%

SMILES: CCc1cc2c(N3CCc4c(cc(Cn5ccnc5)cc4-c4cn(C)nc4C(F)(F)F)C3=O)ccnc2c(OC)n1 + COC1C(OC(N)=O)C(O)C(Oc2ccc3c(O)c(NC(=O)c4ccc(O)c(CC=C(C)C)c4)c(=O)oc3c2C)OC1(C)C
- IC50 (second compound 0.0316 µM): > 10 µM
- IC50 (second compound 0.1 µM): > 10 µM
- IC50 (second compound 0.316 µM): > 10 µM
- IC50 (second compound 1 µM): > 10 µM
- IC50 (second compound 3.16 µM): > 10 µM
- IC50 (second compound 10 µM): > 10 µM
- viability, T/C [1]: 94.6%
- viability, T/C [2]: 94%
- viability, T/C [3]: 116%
- viability, T/C [4]: 87.8%
- viability, T/C [5]: 92.6%
- viability, T/C [6]: 74.9%
- viability, T/C [7]: 97.5%
- viability, T/C [8]: 95.2%
- viability, T/C [9]: 111%
- viability, T/C [10]: 104%
- viability, T/C [11]: 86%
- viability, T/C [12]: 74.3%
- viability, T/C [13]: 83.3%
- viability, T/C [14]: 105%
- viability, T/C [15]: 98%
- viability, T/C [16]: 87.8%
- viability, T/C [17]: 89.7%
- viability, T/C [18]: 73.3%
- viability, T/C [19]: 94.1%
- viability, T/C [20]: 103%
- viability, T/C [21]: 86.5%
- viability, T/C [22]: 106%
- viability, T/C [23]: 107%
- viability, T/C [24]: 74.8%
- viability, T/C [25]: 107%
- viability, T/C [26]: 100%
- viability, T/C [27]: 99.1%
- viability, T/C [28]: 93.1%
- viability, T/C [29]: 89.1%
- viability, T/C [30]: 75.5%
- viability, T/C [31]: 101%
- viability, T/C [32]: 99.7%
- viability, T/C [33]: 107%
- viability, T/C [34]: 101%
- viability, T/C [35]: 109%
- viability, T/C [36]: 83.6%

SMILES: CC1COCCN1c1cc(C2(S(C)(=N)=O)CC2)nc(-c2ccnc3[nH]ccc23)n1 (stereo unspecified) + COC1C(OC(N)=O)C(O)C(Oc2ccc3c(O)c(NC(=O)c4ccc(O)c(CC=C(C)C)c4)c(=O)oc3c2C)OC1(C)C
- IC50 (second compound 0.0316 µM): 0.793 µM
- IC50 (second compound 0.1 µM): 0.817 µM
- IC50 (second compound 0.316 µM): 0.798 µM
- IC50 (second compound 1 µM): 0.822 µM
- IC50 (second compound 3.16 µM): 0.788 µM
- IC50 (second compound 10 µM): 0.776 µM
- viability, T/C [1]: 111%
- viability, T/C [2]: 96.6%
- viability, T/C [3]: 117%
- viability, T/C [4]: 35.3%
- viability, T/C [5]: 5.81%
- viability, T/C [6]: 4.54%
- viability, T/C [7]: 98%
- viability, T/C [8]: 107%
- viability, T/C [9]: 111%
- viability, T/C [10]: 38.1%
- viability, T/C [11]: 6.12%
- viability, T/C [12]: 4.78%
- viability, T/C [13]: 97.5%
- viability, T/C [14]: 111%
- viability, T/C [15]: 104%
- viability, T/C [16]: 36.9%
- viability, T/C [17]: 6.74%
- viability, T/C [18]: 4.71%
- viability, T/C [19]: 95.8%
- viability, T/C [20]: 98.2%
- viability, T/C [21]: 105%
- viability, T/C [22]: 39.8%
- viability, T/C [23]: 6.98%
- viability, T/C [24]: 4.23%
- viability, T/C [25]: 94.8%
- viability, T/C [26]: 100%
- viability, T/C [27]: 104%
- viability, T/C [28]: 37.1%
- viability, T/C [29]: 6.45%
- viability, T/C [30]: 5.04%
- viability, T/C [31]: 108%
- viability, T/C [32]: 104%
- viability, T/C [33]: 106%
- viability, T/C [34]: 34.1%
- viability, T/C [35]: 7.67%
- viability, T/C [36]: 5.44%
